In patent publication US20110178142A1, “PHARMACEUTICAL COMPOSITION FOR THERAPEUTIC OR PROPHYLACTIC TREATMENT OF BACTERIAL INFECTIONS AND ASSOCIATED DISEASES” (National Institute of Immunology, priority 2008, published 2011):

Tests used:
[1] = target: T1, FtsZ (Escherichia coli, UniProt P0A9A6); test: Sedimentation assay of FtsZ polymerization; type: biochemical, E. coli; settings: 50 μM compound; FtsZ 12 μM
T1 construct: The recombinant protein is exactly same as the natural protein; made in house; host or cells: E. coli BL21
Description: FtsZ was over-expressed and purified from E. coli BL21 strain as described by Santa and Panda. (Detection of an intermediate during unfolding of bacterial cell division protein FtsZ: loss of functional properties precedes the global unfolding of FtsZ. (2003). The Journal of Biological Chemistry. 278, 21336-43). The recombinant protein is exactly same as the natural protein. For all the experimental procedures, the above expressed and purified recombinant FtsZ was used. The FtsZ concentration was measured by the Bradford method using BSA as a standard (Bradford M M. (1976) A rapid and sensitive method for the quantitation of microgram quantities of protein utilizing the principle of protein-dye binding. Analytical Biochemistry. 72, 248-54). The purified protein was frozen and stored at −80° C. […]
Then, 10 mM MgSO4 and 1 mM GTP were added to the reaction mixtures and incubated for an additional 15 min at 37° C. Polymerized FtsZ was sedimented at 287,000×g for […], and the protein concentration in the supernatant was measured (Santra M K and Panda D. (2007) Acid-induced loss of functional properties of bacterial cell division protein FtsZ: evidence for an alternative conformation at acidic pH, Proteins. 67,177-88). The protein concentration in the pellet was calculated by subtracting the protein concentration in the supernatant from the total protein concentration.

[2] = target: T1, FtsZ; test: Electron microscopic analysis of FtsZ assembly; type: biochemical, E. coli
Description: (§1) FtsZ was over-expressed and purified from E. coli BL21 strain as described by Santa and Panda. (Detection of an intermediate during unfolding of bacterial cell division protein FtsZ: loss of functional properties precedes the global unfolding of FtsZ. (2003). The Journal of Biological Chemistry. 278, 21336-43). The recombinant protein is exactly same as the natural protein. For all the experimental procedures, the above expressed and purified recombinant FtsZ was used. The FtsZ concentration was measured by the Bradford method using BSA as a standard (Bradford M M. (1976) A rapid and sensitive method for the quantitation of microgram quantities of protein utilizing the principle of protein-dye binding. Analytical Biochemistry. 72, 248-54). The purified protein was frozen and stored at −80° C. Prior to use, FtsZ was thawed and centrifuged at 287,000 ×g for 30 min to remove any insoluble aggregates.
FtsZ (12 μM) in 25 mM pipes buffer (pH 6.5) was incubated without or with different concentrations of compound for 10 min on ice. Then, 10 mM MgSO4 and 1 mM GTP were added to the reaction mixtures and incubated for an additional 15 min at 37° C. Samples were transferred onto a formvar-carbon coated copper grid, stained with 2% uranyl acetate and observed using Transmission Electron Microscope (FEI TECHNAI G^2 12) as described previously (Beuria T K, Santra M K and Panda D. (2005) Sanguinarine blocks cytokinesis in bacteria by inhibiting FtsZ assembly and bundling. Biochemistry. 44, 16584-93).
The observed difference in the thickness of the FtsZ protofilament bundles in the absence and presence of 10 and 25 μM concentration is significant at a 99.9% confidence level (p<0.001).

[3] = target: T1, FtsZ; test: Dilution-induced disassembly of preformed FtsZ filaments; type: biochemical, E. coli; settings: 20 fold dilution, 5 min at 37° C., concentration dependent
Description: as §1
FtsZ (30 μM) was polymerized in 25 mM pipes buffer in the presence of 5 mM MgCl2, 1 mM GTP and 50 mM KCl. Preformed FtsZ polymers were diluted 20 fold in warm 25 mM pipes buffer in the absence and presence of different concentrations of Compound 1 and the mixtures were incubated for 5 min at 37° C. The polymers were then collected by centrifugation.

[4] = target: T1, FtsZ; test: GTPase activity of FtsZ (malachite green ammonium molybdate assay); type: biochemical, E. coli
Description: as §1
It was then polymerized in the presence of 10 mM magnesium and 1 mM GTP at 37° C. The GTP hydrolysis reaction was quenched at different time points by adding perchloric acid. Moles of inorganic phosphate released per mole of FtsZ were measured using the standard malachite green ammonium molybdate assay (Geladopoulos T P, Sotiroudis T G and Evangelopoulos A E. (1991). A malachite green colorimetric assay for protein phosphatase activity. Analytical Biochemistry.192,112-6;Beuria T K, Krishnakumar S S, Sahar S, Singh N, Gupta K, Meshram M and Panda D. (2003) Glutamate-induced assembly of bacterial cell division protein FtsZ. The Journal of Biological Chemistry. 278, 3735-41).

[5] = target: T2, FtsZ (Y371W) (Escherichia coli, UniProt P0A9A6, Y371W); test: Binding to FtsZ by tryptophan fluorescence quenching, double reciprocal plot; parameters: species or system E. coli; settings: FtsZ (Y371W) 1 μM, 25° C., read-out: dissociation constant of FtsZ-compound complex
T2 sequence (P0A9A6 1-383 Y371W): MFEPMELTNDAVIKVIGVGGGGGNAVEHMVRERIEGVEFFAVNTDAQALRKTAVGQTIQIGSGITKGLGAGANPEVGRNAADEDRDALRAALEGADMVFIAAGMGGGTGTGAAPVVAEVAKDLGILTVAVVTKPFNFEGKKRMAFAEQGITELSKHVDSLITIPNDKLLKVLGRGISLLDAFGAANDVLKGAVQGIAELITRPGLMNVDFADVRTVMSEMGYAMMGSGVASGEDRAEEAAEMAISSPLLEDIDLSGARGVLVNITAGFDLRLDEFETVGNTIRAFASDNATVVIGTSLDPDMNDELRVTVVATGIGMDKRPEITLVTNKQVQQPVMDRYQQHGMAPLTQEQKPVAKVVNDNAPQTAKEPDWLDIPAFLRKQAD
Experimental: (Beuria T K, Santra M K and Panda D. (2005) Sanguinarine blocks cytokinesis in bacteria by inhibiting FtsZ assembly and bundling. Biochemistry. 44, 16584-93). […] The change in the fluorescence intensity was used to calculate the dissociation constant of FtsZ-compound complex. A dissociation constant of 15±1.5 μM was determined using a double reciprocal plot of the binding data (FIG. 5B).

[6] = target: T1, FtsZ; test: Far-UV circular dichroism of FtsZ; parameters: species or system E. coli; settings: 0-50 μM compound; FtsZ 1 μM
Description: as §1
The far-UV CD spectra were recorded using a JASCO spectropolarimeter. The secondary structure was monitored over the wavelength range of 200-260 nm using a 0.1-cm path length cuvette and the ellipticity was determined at 220 nm. Each spectrum was recorded using an average of 3 scans.

T1 sequence (P0A9A6 whole entry): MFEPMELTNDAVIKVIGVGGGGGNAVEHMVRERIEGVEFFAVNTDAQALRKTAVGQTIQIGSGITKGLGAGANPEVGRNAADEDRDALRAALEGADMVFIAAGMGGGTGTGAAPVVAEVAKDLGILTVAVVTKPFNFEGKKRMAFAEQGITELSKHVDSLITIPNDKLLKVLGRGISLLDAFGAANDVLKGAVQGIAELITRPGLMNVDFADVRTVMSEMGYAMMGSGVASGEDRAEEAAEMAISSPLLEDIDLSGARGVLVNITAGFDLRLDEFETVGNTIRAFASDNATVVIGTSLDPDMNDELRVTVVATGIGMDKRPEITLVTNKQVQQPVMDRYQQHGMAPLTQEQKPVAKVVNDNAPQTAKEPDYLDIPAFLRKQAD

O=C(O)c1cccc(-c2ccc(C=C3SC(=S)N(c4cccc(C(F)(F)F)c4)C3=O)o2)c1 [the compound, 3-{5-[4-Oxo-2-thioxo-3-(3-trifluoromethyl-phenyl)-thiazolidin-5-ylidenemethyl]-furan-2-yl}-benzoic acid]
increase of sedimentable polymeric mass of FtsZ [1]: 25% | average thickness of FtsZ bundles ([2]; 10 μM compound): 64±3 nm | average thickness of FtsZ bundles ([2]; 25 μM compound): 66±4.3 nm | average thickness of FtsZ bundles ([2]; 50 μM compound, large number of aggregates observed): 46±3.5 nm | dilution-induced disassembly of FtsZ protofilaments [3]: strongly prevented | rate of GTP hydrolysis at 5 min ([4]; 10 μM compound): 2.9 phosphate release per FtsZ per min | rate of GTP hydrolysis at 5 min ([4]; 25 μM compound): 1.5 phosphate release per FtsZ per min | rate of GTP hydrolysis at 5 min ([4]; 50 μM compound): 1.3 phosphate release per FtsZ per min | Kd [5]: 15 ± 1.5 µM | effect on secondary structure of FtsZ (far-UV CD) [6]: did not change the secondary structure
